What was measured:
[1] = Selectivity index, ratio for cytotoxicity against human HepG2 cells after 24 hrs to antiviral activity against HEV Kernow-C1 infected in gaussia luciferase transfected HepG2 cells pre-infected with virus for 4 hrs followed by compound addition and measured after 24 hrs post infection; type: toxicity, cell-based; conditions: read-out: Selectivity Index
[2] = Selectivity index, ratio for cytotoxicity against human HepG2 cells after 48 hrs to antiviral activity against HEV Kernow-C1 infected in gaussia luciferase transfected HepG2 cells pre-infected with virus for 4 hrs followed by compound addition and measured after 48 hrs post infection; type: toxicity, cell-based; conditions: read-out: Selectivity Index
[3] = tested on: Hepatitis E virus; assay: Antiviral activity against HEV Kernow-C1 infected in gaussia luciferase transfected HepG2 cells assessed as reduction in viral replication pre-infected with virus for 4 hrs followed by compound addition and measured after 48 hrs post infection by luminometer analysis; type: functional, organism-based; conditions: for EC90: time 44 hrs
[4] = tested on: Hepatitis E virus; assay: Antiviral activity against HEV Kernow-C1 infected in gaussia luciferase transfected HepG2 cells assessed as reduction in viral replication pre-infected with virus for 4 hrs followed by compound addition and measured after 24 hrs post infection by luminometer analysis; type: functional, organism-based; conditions: for EC90: time 20 hrs
[5] = Cytotoxicity against human HepG2 cells after 24 hrs by MTT assay; type: toxicity, cell-based
[6] = Cytotoxicity against human HepG2 cells after 48 hrs by MTT assay; type: toxicity, cell-based
[7] = Selectivity index, ratio for cytotoxicity against human Huh-7 cells after 48 hrs to antiviral activity against Chikungunya virus ECSA infected in Huh-7 cells expressing GFP pre-infected with virus for 1 hr followed by compound addition and measured after 48 hrs post infection; type: toxicity, cell-based; conditions: read-out: Selectivity Index
[8] = Selectivity index, ratio for cytotoxicity against human Huh-7 cells after 24 hrs to antiviral activity against Chikungunya virus ECSA infected in Huh-7 cells expressing GFP pre-infected with virus for 1 hr followed by compound addition and measured after 24 hrs post infection; type: toxicity, cell-based; conditions: read-out: Selectivity Index
[9] = Selectivity index, ratio for cytotoxicity against african green monkey Vero E6 cells after 48 hrs to antiviral activity against RVFV MP-12 infected in Vero E6 cells pre-infected with virus for 1 hr followed by compound addition and measured after 48 hrs post infection; type: toxicity, cell-based, Vero C1008; conditions: read-out: Selectivity Index
[10] = tested on: Vero C1008; assay: Cytotoxicity against african green monkey Vero E6 cells after 48 hrs by MTT assay; type: toxicity, cell-based; conditions: chlorocebus sabaeus, vero c1008, 48 h
[11] = Selectivity index, ratio for cytotoxicity against african green monkey Vero E6 cells after 24 hrs to antiviral activity against RVFV MP-12 infected in Vero E6 cells pre-infected with virus for 1 hr followed by compound addition and measured after 24 hrs post infection; type: toxicity, cell-based, Vero C1008; conditions: read-out: Selectivity Index
[12] = Selectivity index, ratio for cytotoxicity against african green monkey Vero E6 cells after 24 hrs to antiviral activity against SARS-CoV-2 2019-nCoV Muc-IMB-1 infected in Vero E6 cells pre-infected with virus for 1 hr followed by compound addition and measured after 24 hrs post infection; type: toxicity, cell-based, Vero C1008; conditions: read-out: Selectivity Index
[13] = Selectivity index, ratio for cytotoxicity against african green monkey Vero E6 cells after 48 hrs to antiviral activity against SARS-CoV-2 2019-nCoV Muc-IMB-1 infected in Vero E6 cells pre-infected with virus for 1 hr followed by compound addition and measured after 48 hrs post infection; type: toxicity, cell-based, Vero C1008; conditions: read-out: Selectivity Index

SMILES | selectivity ratio at 24 h [1] | selectivity ratio at 48 h [2] | other results
COC(=O)[C@H]1[C@@H](O)[C@@]2(O)c3c(OC)cc(O[C@@H]4O[C@@H]([C@H](O)CO)CO[C@H]4OC)cc3O[C@@]2(c2ccc(OC)cc2)[C@@H]1c1ccccc1 [SILVESTROL] | 76.7 | 6.1 | 
COc1cc(OC)c2c(c1)O[C@@]1(c3ccc(F)cc3)[C@H](c3ccccc3)[C@@H](C(=O)N(C)C)[C@@H](O)[C@@]21O (racemic) | 4.4 | 1.5 | 
COc1cc(OC)c2c(c1)O[C@@]1(c3ccc(Cl)cc3)[C@H](c3ccccc3)[C@@H](C(=O)N(C)C)[C@@H](O)[C@@]21O (racemic) | 50.8 | 2.7 | 
CONC(=O)[C@H]1[C@@H](O)[C@@]2(O)c3c(OC)cc(OC)cc3O[C@@]2(c2ccc(Cl)cc2)[C@@H]1c1ccccc1 (racemic) | 198 | 4.2 | EC50 [3]: 2.3 nM; EC90 [3]: 18.2 nM; EC50 [4]: 2.8 nM; EC90 [4]: 23.8 nM; CC50 at 24 h [5]: 529 nM; CC50 at 48 h [6]: 10 nM
CONC(=O)[C@H]1[C@@H](O)[C@@]2(O)c3c(OC)cc(OC)cc3O[C@@]2(c2ccc(F)cc2)[C@@H]1c1ccccc1 (racemic) | 13.5 | 3.7 | EC50 [3]: 52.9 nM; EC90 [3]: 338 nM; EC50 [4]: 53.7 nM; EC90 [4]: 670 nM; CC50 at 24 h [5]: 666 nM; CC50 at 48 h [6]: 143 nM
CONC(=O)[C@H]1[C@@H](O)[C@@]2(O)c3c(Cl)cc(Br)cc3O[C@@]2(c2ccc(OC)cc2)[C@@H]1c1ccccc1 (racemic) | 123 | 5.7 | selectivity ratio at 48 h [7]: 317; selectivity ratio at 24 h [8]: 402; selectivity ratio at 48 h [9]: 1.7; CC50 [10]: 176 nM; selectivity ratio at 24 h [11]: 23.8; selectivity ratio at 24 h [12]: 19.5; selectivity ratio at 48 h [13]: 0.9
COC(=O)[C@H]1[C@@H](O)[C@@]2(O)c3c(OC)cc(OC)cc3O[C@@]2(c2ccc(F)cc2)[C@@H]1c1ccccc1 (racemic) | 10.9 | 1.4 | 
CONC(=O)[C@H]1[C@@H](O)[C@@]2(O)c3c(OC)cc(Br)cc3O[C@@]2(c2ccc(OC)cc2)[C@@H]1c1ccccc1 (racemic) | 52800 | 7.4 | 
CONC(=O)[C@H]1[C@@H](O)[C@@]2(O)c3c(F)cc(OC)cc3O[C@@]2(c2ccc(OC)cc2)[C@@H]1c1ccccc1 (racemic) | 28.5 | 2.5 | 
COC(=O)[C@H]1[C@@H](O)[C@@]2(O)c3c(Cl)cc(Cl)cc3O[C@@]2(c2ccc(OC)cc2)[C@@H]1c1ccccc1 (racemic) | 31.7 | 8.2 | selectivity ratio at 48 h [7]: 44.9; selectivity ratio at 24 h [8]: 57.5; selectivity ratio at 48 h [9]: 7; selectivity ratio at 24 h [11]: 9.8; selectivity ratio at 24 h [12]: 9; selectivity ratio at 48 h [13]: 5.7
COC(=O)[C@H]1[C@@H](O)[C@@]2(O)c3c(Cl)cc(Cl)cc3O[C@@]2(c2ccc(Br)cc2)[C@@H]1c1ccccc1 (racemic) | 13.4 | 3.7 | 
COC(=O)[C@H]1[C@@H](O)[C@@]2(O)c3c(Br)cc(OC)cc3O[C@@]2(c2ccc(OC)cc2)[C@@H]1c1ccccc1 (racemic) | 9.7 | 2.5 | 
COc1ccc([C@@]23Oc4cc(OC)cc(OC)c4[C@]2(O)[C@H](O)[C@H](C(=O)N(C)C)[C@H]3c2ccccc2)cc1 (racemic) [ROCAGLAMIDE] | 19.7 | 2.1 | 
COC(=O)[C@H]1[C@@H](O)[C@@]2(O)c3c(OC)cc(OC)cc3O[C@@]2(c2ccc(Cl)cc2)[C@@H]1c1ccccc1 (racemic) | 26.4 | 2.2 | 
CONC(=O)[C@H]1[C@@H](O)[C@@]2(O)c3c(OC)cc(OC)cc3O[C@@]2(c2ccc(OC)cc2)[C@@H]1c1ccccc1 (racemic) | 35.4 | 3.8 | EC50 [3]: 3.7 nM; EC90 [3]: 27.3 nM; EC50 [4]: 6.1 nM; EC90 [4]: 29 nM; CC50 at 24 h [5]: 188 nM; CC50 at 48 h [6]: 14.3 nM
COC(=O)[C@H]1[C@@H](O)[C@@]2(O)c3c(OC)cc(Br)cc3O[C@@]2(c2ccc(OC)cc2)[C@@H]1c1ccccc1 (racemic) | 160 | 11 | selectivity ratio at 48 h [7]: 428; selectivity ratio at 24 h [8]: 637; selectivity ratio at 48 h [9]: 23.1; selectivity ratio at 24 h [11]: 38.4; selectivity ratio at 24 h [12]: 29.5; selectivity ratio at 48 h [13]: 20.9
COC(=O)[C@H]1[C@@H](O)[C@@]2(O)c3c(Cl)cc(Br)cc3O[C@@]2(c2ccc(OC)cc2)[C@@H]1c1ccccc1 (racemic) | 122 | 5.1 | 
COCOc1cc(F)c2c(c1)O[C@@]1(c3ccc(Br)cc3)[C@H](c3ccccc3)[C@@H](C(=O)OC)[C@@H](O)[C@@]21O (racemic) | 8.1 | 2.1 | 
COC(=O)[C@H]1[C@@H](O)[C@@]2(O)c3c(Cl)cc(OC)cc3O[C@@]2(c2ccc(OC)cc2)[C@@H]1c1ccccc1 (racemic) | 9.3 | 1.8 | 
COC(=O)[C@H]1[C@@H](O)[C@@]2(O)c3c(OC)cc(OC)cc3O[C@@]2(c2ccc(Br)cc2)[C@@H]1c1ccccc1 (racemic) | 74.1 | 3.2 | 
COC(=O)[C@H]1[C@@H](O)[C@@]2(O)c3c(Br)cc(Br)cc3O[C@@]2(c2ccc(OC)cc2)[C@@H]1c1ccccc1 (racemic) | 22.1 | 2.6 | 
COC(=O)[C@H]1[C@@H](O)[C@@]2(O)c3c(OC)cc(F)cc3O[C@@]2(c2ccc(OC)cc2)[C@@H]1c1ccccc1 (racemic) | 1 | 1.3 | 
COC(=O)[C@H]1[C@@H](O)[C@@]2(O)c3c(OC)cc(Cl)cc3O[C@@]2(c2ccc(OC)cc2)[C@@H]1c1ccccc1 (racemic) | 79.3 | 7.5 | 
CONC(=O)[C@H]1[C@@H](O)[C@@]2(O)c3c(Cl)cc(Cl)cc3O[C@@]2(c2ccc(OC)cc2)[C@@H]1c1ccccc1 (racemic) | 65.9 | 3.3 | 
COC(=O)[C@H]1[C@@H](O)[C@@]2(O)c3c(F)cc(OC)cc3O[C@@]2(c2ccc(OC)cc2)[C@@H]1c1ccccc1 (racemic) | 30.4 | 2.5 | 
COC(=O)[C@H]1[C@@H](O)[C@@]2(O)c3c(Br)cc(Cl)cc3O[C@@]2(c2ccc(OC)cc2)[C@@H]1c1ccccc1 (racemic) | 19 | 2.8 | 
CONC(=O)[C@H]1[C@@H](O)[C@@]2(O)c3c(Br)cc(Cl)cc3O[C@@]2(c2ccc(OC)cc2)[C@@H]1c1ccccc1 (racemic) | 163 | 4.6 | EC50 [3]: 5.5 nM; EC90 [3]: 62.9 nM; EC50 [4]: 4.1 nM; EC90 [4]: 131 nM; CC50 at 24 h [5]: 464 nM; CC50 at 48 h [6]: 26.3 nM
COc1ccc([C@@]23Oc4cc(OC)cc(F)c4[C@]2(O)[C@H](O)[C@H](C(=O)N(C)C)[C@H]3c2ccccc2)cc1 (racemic) | 14.3 | 2.7 | 
COC(=O)[C@H]1[C@@H](O)[C@@]2(O)c3c(F)cc(F)cc3O[C@@]2(c2ccc(OC)cc2)[C@@H]1c1ccccc1 (racemic) | 1 | 1 | 
COCOc1cc(F)c2c(c1)O[C@@]1(c3ccc(OC)cc3)[C@H](c3ccccc3)[C@@H](C(=O)OC)[C@@H](O)[C@@]21O (racemic) | 4.6 | 1.8 | 

From ChEMBL document CHEMBL5344434
